Key:
Assay type in all cases: biochemical
[1] = target: EGFR (Homo sapiens, UniProt P00533); experiment: EGFR kinase inhibition (in vitro kinase assay)
[2] = target: Lck (Homo sapiens, UniProt P06239); experiment: Lck kinase inhibition (in vitro kinase assay)
Description: (§1) Btk kinase activity is determined using a time-resolved fluorescence resonance energy transfer (TR-FRET) methodology. Measurements are performed in a reaction volume of 50 μL using 96-well assay plates. […] The reaction is quenched by the addition of 1.2 equivalents of EDTA (relative to divalent cation) in 25 μL of 1× Lance buffer (Perkin-Elmer). Streptavidin-APC (Perkin-Elmer) and Eu-labeled p-Tyr100 antibody (Perkin-Elmer) in 1× Lance buffer are added in a 25 μL volume to give final concentrations of 100 nM and 2.5 nM, respectively, and the mixture is allowed to incubate for one hour. The TR-FRET signal is measured on a multimode plate reader with an excitation wavelength (λEx) of 330 nm and detection wavelengths (λEm) of 615 and 665 nm. Activity is determined by the ratio of the fluorescence at 665 nm to that at 615 nm. For each compound, enzyme activity is measured at various concentrations of compound. Negative control reactions are performed in the absence of inhibitor in replicates of six, and two no-enzyme controls are used to determine baseline fluorescence levels. Inhibition constants, Ki(app), ware obtained using the program BatchKi (Kuzmic et al. (2000), Anal. Biochem. 286:45-50). IC50s are obtained according to the equation: IC50={Ki(app)/(1+[ATP]/Km^ATP)}+[E]total/2;
(§2) For all kinases, [ATP]=Km^ATP, [Btk]total=0.5 nM and [Lck]total=6 nM.

[3] = target: T1, BTK (Homo sapiens, UniProt Q06187); experiment: Btk in vitro inhibitory activity (TR-FRET, mobility shift or radiometric filter binding kinase assay); conditions: determined using one of the methods outlined in Example 47a, 47b, and 47c
T1 construct: purified from insect cells as a full-length construct containing a N-terminal 6×-His tag; His6 (N); made in house; host or cells: insect cells (baculovirus, Sf21)
Description: as §1, §2
Kinase activity is measured in vitro using electrophoretic mobility shift assay. The kinase reactions are assembled in a total volume of 25 μL in 384 well plates. […] The reaction is incubated for one hour and is quenched by the addition of 45 μL of termination buffer (100 mM HEPES, pH7.5, 0.01% Triton X-100, 30 mM EDTA). The terminated reactions are analyzed using 12 channel LabChip® 3000 microfluidic detection instrument (Caliper Life Sciences). The enzymatic phosphorylation of the peptide results in a change in net charge, enabling electrophoretic separation of product from substrate peptide. As substrate and product peptides are separated, two peaks of fluorescence are observed. Change in the relative fluorescence intensity of the substrate and product peaks is the parameter measured, reflecting enzyme activity. In the presence of an inhibitor, the ratio between product and substrate is altered: the signal of the product decreases, while the signal of the substrate increases.
Activity in each sample is determined as the product to sum ratio (PSR): P/(S+P), where P is the peak height of the product peptide and S is the peak height of the substrate peptide. For each compound, enzyme activity is measured at various concentrations (12 concentrations of compound spaced by 3× dilution intervals). Negative control samples (0%-inhibition in the absence of inhibitor) and positive control samples (100%-inhibition, in the presence of 20 mM EDTA) are assembled in replicates of four and are used to calculate %-inhibition values for each inhibitor at each concentration. Percent inhibition (Pinh) is determined using following equation: Pinh=(PSR0%−PSRinh)/(PSR0%−PSR100%)*100,
where PSRmh is the product sum ratio in the presence of inhibitor, PSR0% is the average product sum ration in the absence of inhibitor and PSR100% is the average product sum ratio in 100%-inhibition control samples;
The IC50 values of inhibitors are determined by 4 parameter sigmoidal dose-response model fitting of the inhibition curves (Pinh versus inhibitor concentration) using XLfit 4 software.
Human Btk kinase (Genbank accession # NP_000052) was purified from insect cells as a full-length construct containing a N-terminal 6×-His tag. Btk kinase activity was determined using a radiometric filter binding assay. Measurements are performed in a low μL reaction volume 384-well assay plates. […]

Sequence of Lck (P06239 whole entry, species assumed): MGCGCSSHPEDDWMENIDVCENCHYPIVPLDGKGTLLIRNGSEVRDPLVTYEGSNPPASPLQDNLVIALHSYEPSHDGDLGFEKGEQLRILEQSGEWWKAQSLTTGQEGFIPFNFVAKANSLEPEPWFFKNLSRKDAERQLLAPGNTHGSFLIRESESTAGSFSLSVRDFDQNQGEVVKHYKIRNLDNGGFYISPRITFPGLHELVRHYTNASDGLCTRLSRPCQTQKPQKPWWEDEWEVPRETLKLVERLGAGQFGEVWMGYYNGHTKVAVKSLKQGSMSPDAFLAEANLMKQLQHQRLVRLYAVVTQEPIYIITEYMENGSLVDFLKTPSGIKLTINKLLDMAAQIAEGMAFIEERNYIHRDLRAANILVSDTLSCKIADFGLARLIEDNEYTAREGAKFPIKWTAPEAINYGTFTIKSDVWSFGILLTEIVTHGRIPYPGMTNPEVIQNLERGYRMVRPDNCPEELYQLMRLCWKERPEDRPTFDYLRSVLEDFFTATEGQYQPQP
T1 sequence (Q06187 whole entry): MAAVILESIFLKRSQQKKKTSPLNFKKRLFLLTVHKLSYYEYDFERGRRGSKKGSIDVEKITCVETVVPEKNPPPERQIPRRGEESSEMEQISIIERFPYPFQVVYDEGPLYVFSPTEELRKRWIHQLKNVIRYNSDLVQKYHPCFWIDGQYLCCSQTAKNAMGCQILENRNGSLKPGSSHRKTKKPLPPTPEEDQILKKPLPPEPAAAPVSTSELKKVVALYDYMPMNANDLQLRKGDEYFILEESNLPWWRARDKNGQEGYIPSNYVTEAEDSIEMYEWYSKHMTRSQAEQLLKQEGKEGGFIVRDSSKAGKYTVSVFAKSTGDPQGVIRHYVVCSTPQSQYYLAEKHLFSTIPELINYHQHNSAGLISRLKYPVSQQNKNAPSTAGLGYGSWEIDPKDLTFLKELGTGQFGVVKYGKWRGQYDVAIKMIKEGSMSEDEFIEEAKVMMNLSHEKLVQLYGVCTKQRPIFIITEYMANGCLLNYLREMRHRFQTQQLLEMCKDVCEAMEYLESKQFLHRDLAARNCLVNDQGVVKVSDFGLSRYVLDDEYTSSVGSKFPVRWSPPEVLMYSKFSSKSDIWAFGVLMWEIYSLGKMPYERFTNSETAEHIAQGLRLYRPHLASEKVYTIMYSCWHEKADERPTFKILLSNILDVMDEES
Sequence of EGFR (P00533 25-1210, species assumed): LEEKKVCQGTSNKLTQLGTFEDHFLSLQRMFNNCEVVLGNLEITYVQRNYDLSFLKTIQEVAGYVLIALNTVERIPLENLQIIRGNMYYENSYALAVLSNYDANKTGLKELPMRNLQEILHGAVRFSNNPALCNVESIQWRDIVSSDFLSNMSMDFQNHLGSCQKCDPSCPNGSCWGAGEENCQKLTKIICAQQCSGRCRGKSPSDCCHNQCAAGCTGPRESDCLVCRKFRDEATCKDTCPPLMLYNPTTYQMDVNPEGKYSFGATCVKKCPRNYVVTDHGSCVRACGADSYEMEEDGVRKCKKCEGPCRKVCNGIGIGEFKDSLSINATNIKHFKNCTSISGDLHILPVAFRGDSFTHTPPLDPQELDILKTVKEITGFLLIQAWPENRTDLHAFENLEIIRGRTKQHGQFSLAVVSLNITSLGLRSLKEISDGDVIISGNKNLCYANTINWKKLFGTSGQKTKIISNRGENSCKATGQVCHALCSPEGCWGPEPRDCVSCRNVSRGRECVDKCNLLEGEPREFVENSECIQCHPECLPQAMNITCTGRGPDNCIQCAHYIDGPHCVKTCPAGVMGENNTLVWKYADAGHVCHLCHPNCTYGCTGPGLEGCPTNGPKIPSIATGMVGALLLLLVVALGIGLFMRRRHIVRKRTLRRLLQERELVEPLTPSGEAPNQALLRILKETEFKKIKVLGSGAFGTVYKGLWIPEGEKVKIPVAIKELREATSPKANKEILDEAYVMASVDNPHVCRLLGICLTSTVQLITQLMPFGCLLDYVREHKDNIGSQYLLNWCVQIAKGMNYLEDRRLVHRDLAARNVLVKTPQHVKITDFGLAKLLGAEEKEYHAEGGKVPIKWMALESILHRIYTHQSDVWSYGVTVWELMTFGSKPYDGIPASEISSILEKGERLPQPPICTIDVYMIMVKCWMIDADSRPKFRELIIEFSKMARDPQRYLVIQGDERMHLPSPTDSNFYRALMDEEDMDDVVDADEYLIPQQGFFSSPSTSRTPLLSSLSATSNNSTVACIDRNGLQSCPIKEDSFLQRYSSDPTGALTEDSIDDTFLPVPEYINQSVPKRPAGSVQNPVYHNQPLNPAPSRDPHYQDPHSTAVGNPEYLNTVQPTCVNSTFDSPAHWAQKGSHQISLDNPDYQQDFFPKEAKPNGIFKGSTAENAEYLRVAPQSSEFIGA

IC50 [1] | IC50 [2] | IC50 [3] | Structure (SMILES)
1000 to 10000 nM | 100 to 1000 nM | < 1 nM | CC(C)c1ccnc(NC(=O)c2ccc(-c3nn([C@@H]4CCN(C(=O)/C=C/CN(C)C5CC5)C4)c4ncnc(N)c34)cc2)c1 [Example 18, (R,E)-4-(4-amino-1-(1-(4-(cyclopropyl(methyl)amino)but-2-enoyl)pyrrolidin-3-yl)-1H-pyrazolo[3,4-d]pyrimidin-3-yl)-N-(4-isopropylpyridin-2-yl)benzamide]
100 to 1000 nM | < 100 nM | < 1 nM | CC(C)c1ccnc(NC(=O)c2ccc(-c3nn([C@@H]4CCN(C(=O)/C=C/CN(C)C)C4)c4ncnc(N)c34)cc2)c1 [Example 31, (R,E)-4-(4-amino-1-(1-(4-(dimethylamino)but-2-enoyl)pyrrolidin-3-yl)-1H-pyrazolo[3,4-d]pyrimidin-3-yl)-N-(4-isopropylpyridin-2-yl)benzamide]
100 to 1000 nM | 100 to 1000 nM | < 1 nM | CN(C)C/C=C/C(=O)N1CC[C@@H](n2nc(-c3ccc(C(=O)Nc4ccccn4)cc3)c3c(N)ncnc32)C1 [Example 30, (R,E)-4-(4-amino-1-(1-(4-(dimethylamino)but-2-enoyl)pyrrolidin-3-yl)-1H-pyrazolo[3,4-d]pyrimidin-3-yl)-N-(pyridin-2-yl)benzamide]
1000 to 10000 nM | 100 to 1000 nM | < 100 nM | CN(C/C=C/C(=O)N1CC[C@@H](n2nc(-c3ccc(C(=O)Nc4cc(C#N)ccn4)cc3)c3c(N)ncnc32)C1)C1CC1 [Example 16, (R,E)-4-(4-amino-1-(1-(4-(cyclopropyl(methyl)amino)but-2-enoyl)pyrrolidin-3-yl)-1H-pyrazolo[3,4-d]pyrimidin-3-yl)-N-(4-cyanopyridin-2-yl)benzamide]
100 to 1000 nM | 1000 to 10000 nM | < 100 nM | CN(C/C=C/C(=O)N1CC[C@@H](n2nc(-c3ccc(C(=O)Nc4ccccn4)cc3)c3c(N)ncnc32)C1)C1CC1 [Example 15, (R,E)-4-(4-amino-1-(1-(4-(cyclopropyl(methyl)amino)but-2-enoyl)pyrrolidin-3-yl)-1H-pyrazolo[3,4-d]pyrimidin-3-yl)-N-(pyridin-2-yl)benzamide]

The next lines start with the compound.

Structure (SMILES) | IC50 [1] | IC50 [2] | IC50 [3]
CCCc1ccnc(NC(=O)c2ccc(-c3nn([C@@H]4CCN(C(=O)/C=C/CN(C)C5CC5)C4)c4ncnc(N)c34)cc2)c1 [Example 3, (R,E)-4-(4-amino-1-(1-(4-(cyclopropyl(methyl)amino)but-2-enoyl)pyrrolidin-3-yl)-1H-pyrazolo[3,4-d]pyrimidin-3-yl)-N-(4-propylpyridin-2-yl)benzamide] | 100 to 1000 nM | 100 to 1000 nM | < 1 nM
CC(C)c1cnc(NC(=O)c2ccc(-c3nn([C@@H]4CCN(C(=O)/C=C/CN(C)C5CC5)C4)c4ncnc(N)c34)cc2)s1 [Example 8, (R,E)-4-(4-amino-1-(1-(4-(cyclopropyl(methyl)amino)but-2-enoyl)pyrrolidin-3-yl)-1H-pyrazolo[3,4-d]pyrimidin-3-yl)-N-(5-isopropylthiazol-2-yl)benzamide] | 100 to 1000 nM | < 100 nM | < 100 nM
CN(C/C=C/C(=O)N1CC[C@@H](n2nc(-c3ccc(C(=O)Nc4ncc(C(F)(F)F)s4)cc3)c3c(N)ncnc32)C1)C1CC1 [Example 11, (R,E)-4-(4-amino-1-(1-(4-(cyclopropyl(methyl)amino)but-2-enoyl)pyrrolidin-3-yl)-1H-pyrazolo[3,4-d]pyrimidin-3-yl)-N-(5-(trifluoromethyl)thiazol-2-yl)benzamide] | 100 to 1000 nM | < 100 nM | < 100 nM
COc1cc(-c2nn([C@@H]3CCN(C(=O)/C=C/CN(C)C4CC4)C3)c3ncnc(N)c23)ccc1C(=O)Nc1cc(C)ccn1 [Example 5, (R,E)-4-(4-amino-1-(1-(4-(cyclopropyl(methyl)amino)but-2-enoyl)pyrrolidin-3-yl)-1H-pyrazolo[3,4-d]pyrimidin-3-yl)-2-methoxy-N-(4-methylpyridin-2-yl)benzamide] | 1000 to 10000 nM | 1000 to 10000 nM | < 100 nM
CCc1ccnc(NC(=O)c2ccc(-c3nn([C@@H]4CCN(C(=O)/C=C/CN(C)C5CC5)C4)c4ncnc(N)c34)cc2)c1 [Example 4, (R,E)-4-(4-amino-1-(1-(4-(cyclopropyl(methyl)amino)but-2-enoyl)pyrrolidin-3-yl)-1H-pyrazolo[3,4-d]pyrimidin-3-yl)-N-(4-ethylpyridin-2-yl)benzamide] | 1000 to 10000 nM | 100 to 1000 nM | < 1 nM
CCc1cnc(NC(=O)c2ccc(-c3nn([C@@H]4CCN(C(=O)/C=C/CN(C)C5CC5)C4)c4ncnc(N)c34)cc2)s1 [Example 9, (R,E)-4-(4-amino-1-(1-(4-(cyclopropyl(methyl)amino)but-2-enoyl)pyrrolidin-3-yl)-1H-pyrazolo[3,4-d]pyrimidin-3-yl)-N-(5-ethylthiazol-2-yl)benzamide] | 100 to 1000 nM | < 100 nM | < 100 nM
CN(C/C=C/C(=O)N1CC[C@@H](n2nc(-c3ccc(C(=O)Nc4ncco4)cc3)c3c(N)ncnc32)C1)C1CC1 [Example 14, (R,E)-4-(4-amino-1-(1-(4-(cyclopropyl(methyl)amino)but-2-enoyl)pyrrolidin-3-yl)-1H-pyrazolo[3,4-d]pyrimidin-3-yl)-N-(oxazol-2-yl)benzamide] | > 10000 nM | > 10000 nM | < 100 nM
Cc1ccnc(NC(=O)c2ccc(-c3nn([C@@H]4CCN(C(=O)/C=C/CN(C)C5CC5)C4)c4ncnc(N)c34)cc2)c1 [Example 1, (R,E)-4-(4-amino-1-(1-(4-(cyclopropyl(methyl)amino)but-2-enoyl)pyrrolidin-3-yl)-1H-pyrazolo[3,4-d]pyrimidin-3-yl)-N-(4-methylpyridin-2-yl)benzamide] | 1000 to 10000 nM | 100 to 1000 nM | < 1 nM
